Laboratory results taken from patent US4665053A, “Peptide derivatives, the preparation and their use as elastase inhibitors” (Centre National de la Recherche Scientifique, priority 1983, dated 1987).
Residues, ends and D or L forms follow the SMILES beside them. *: point of attachment. Oleoyl = CCCCCCCC/C=C\CCCCCCCC(=O)*

Key:
hog pancreatic elastase = target: T1, hog pancreatic elastase (Sus scrofa, UniProt P00772); test: Inhibition of purified pancreatic elastase, hydrolysis of synthetic paranitroanilide substrates; assay type: biochemical; conditions: Pancreatic elastase 4×10^-9 M; molar ratio inhibitor/enzyme 4 × 10^4; 15 minutes pre-incubation
T1 construct: Purified elastases employed: hog pancreatic elastase (120 U/mg); host or cells: pancreas, by the enzyme's name only
T1 sequence (P00772 27-266): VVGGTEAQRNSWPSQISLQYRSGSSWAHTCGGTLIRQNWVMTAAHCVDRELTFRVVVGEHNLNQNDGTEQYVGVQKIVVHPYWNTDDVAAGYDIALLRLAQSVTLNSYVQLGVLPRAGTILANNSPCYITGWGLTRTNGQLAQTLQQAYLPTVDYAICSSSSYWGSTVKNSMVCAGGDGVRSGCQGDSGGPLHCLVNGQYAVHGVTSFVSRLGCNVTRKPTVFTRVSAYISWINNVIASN
Procedure: (§1) Purified elastases employed: hog pancreatic elastase (120 U/mg) and purified human leucocytic elastase starting from the spleen.
(§2) Molar concentration of these enzymes: pancreatic elastase: 4×10^-9 M; leucocytic elastase: 10×10^-9 M.
(§3) The enzymatic activity of these elastases is followed by hydrolysis of specific synthetic substrates: N-succinoyltrialanine paranitroanilide, acetyl-bis alanylprolyl-alanine paranitroanilide at a final concentration of 1.25 mM in a Tris/HCl buffer, pH=8-8.6. The variation in optical density at 410 nm is followed directly in a Beckman type Acta C III spectrophotometer.
(§4) In the inhibition tests, the oleoyl compounds are pre-incubated 15 minutes with the elastases before determing the residual enzymatic activities.

pancreatic elastase [1] = target: T2, pancreatic elastase (Sus scrofa, UniProt P00772); test: In vivo inhibition of degradation of cutaneous elastic fibers induced by intradermal injection of pancreatic elastase; design: host or cells: exogenous enzyme injected into rabbit skin; conditions: rabbit skin, intradermal pretreatment, histology and quantitative morphometry
T2 sequence (P00772 27-266): as above
Procedure: 2. In vivo study of the inhibiting action of Oleoyl-bis-alanyl-proline-alanine towards the enzymatic degradation of cutaneous elastic fibers induced by intradermal injection of pancreatic elastase
For these tests, young Garenne rabbits (1 month) have been employed. 3 types of intradermal injections (volume: 0.25 ml; solvent: phosphate buffer, pH 7.0) have been performed on the backs of the test animals.
1. Control injection: injection of 0.25 ml of phosphate buffer only;
2. Injection of hog pancreatic elastase: 10 micrograms (1.2 units […]) in 0.25 ml of buffer; and
3. Injections of 50-250 micrograms of Ol--(Ala)2 --Pro--Ala (8×10^-8 to 3×10^-7 mole) in 0.25 ml of buffer followed by an injection at the same site of 10 micrograms (1.2 units, 4×10^-10 mole) of pancreatic elastase in 0.25 ml of buffer.
Different samples of rabbit skin are then treated in histology in order to permit visualization of elastic fibers.
The histologic observation and studies of quantitative morphometry reveal: […]

[2] = target: T3, human leucocytic elastase (Homo sapiens, UniProt P08246); test: Inhibition of purified leucocytic elastase, hydrolysis of synthetic paranitroanilide substrates; assay type: biochemical; conditions: for Percent inhibition: Leucocytic elastase 10×10^-9 M, molar ratio inhibitor/enzyme 4 × 10^4, 15 minutes pre-incubation; for elastase inhibitor (conclusion in words): conclusion on elastases in general
T3 construct: purified human leucocytic elastase starting from the spleen; from tissue; host or cells: human spleen
T3 sequence (P08246 30-267): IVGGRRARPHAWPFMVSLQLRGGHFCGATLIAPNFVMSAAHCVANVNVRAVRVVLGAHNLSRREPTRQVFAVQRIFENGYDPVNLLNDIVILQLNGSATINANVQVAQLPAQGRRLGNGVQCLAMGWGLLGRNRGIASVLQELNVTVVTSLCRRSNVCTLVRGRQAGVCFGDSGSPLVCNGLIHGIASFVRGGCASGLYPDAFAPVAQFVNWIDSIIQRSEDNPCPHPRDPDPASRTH
Procedure: as §1, §2, §3, §4

pancreatic elastase [3] = target: T2, pancreatic elastase; test: Resistance of pretreated radiolabelled elastin to hydrolysis by pancreatic elastase; assay type: biochemical, hog; conditions: elastin pretreated 24 hours, washed, then 0.05 mg pancreatic elastase; molar ratio inhibitor/enzyme 5 × 10^4
Procedure: (1c) Elastin pretreated with these substances is partially resistant to enzymatic hydrolysis by the elastases.
For these tests, elastin has been radiolabelled with tritium borohydride NaBH4, specific activity: 1.7×10^5 cmp/mg.
1 mg of elastin is treated with […] of a solution of different compounds in 1 ml of Tris HCl buffer, pH-8.0, for 24 hours; the mixture is centrifuged and the insoluble elastin washed with 1 ml of buffer. 0.05 mg of pancreatic elastase is then added and hydrolysis of the polymer is quantified by measurement of the radioactive peptides liberated during the course of the hydrolysis.

Structure (SMILES) | Percent inhibition (hog pancreatic elastase) | elastic tissue preserved (pancreatic elastase [1]; molar ratio inhibitor/enzyme 2×10^2) | elastic tissue preserved (pancreatic elastase [1]; molar ratio inhibitor/enzyme 10^3) | Percent inhibition [2] | elastase inhibitor (conclusion in words) [2] | Percent inhibition relative to samples without pretreatment (pancreatic elastase [3])
CCCCCCCC/C=C\CCCCCCCC(=O)N[C@@H](C)C(=O)N[C@@H](C)C(=O)N1CCC[C@H]1C(=O)N[C@@H](C)C(=O)O [Ol(Ala)2 Pro Alanine, Oleoyl-L-Alanyl-L-Alanyl-L-Prolyl-L-Alanine] (Oleoyl-AAPA-OH) | 15% | 40-60% | 60-80% | 5% | act as elastase inhibitors | 
C[C@H](N)C(=O)N[C@@H](C)C(=O)N1CCC[C@H]1C(=O)N[C@@H](C)C(=O)O [H(Ala)2 Pro Alanine, L-Alanyl-L-Alanyl-L-Proyl-Alanine, reference compound] (H-AAPA-OH) |  |  |  |  |  | 0%
CCCCCCCC/C=C\CCCCCCCC(=O)N[C@@H](C)C(=O)N[C@@H](C)C(=O)N1CCC[C@H]1C(=O)N[C@@H](C)C=O [Ol(Ala)2 Pro Alaninal, Oleoyl-L-Alanyl-L-Alanyl-L-Prolyl-L-Alaninal] (Oleoyl-AAPA-aldehyde) | 85% |  |  | 90% | act as elastase inhibitors | 98%
CC(C)[C@H](NC(=O)[C@@H]1CCCN1C(=O)[C@H](C)NC(=O)[C@H](C)N)C(=O)O [H(Ala)2 Pro Valine, L-Alanyl-L-Alanyl-L-Prolyl-L-Valine, reference compound] (H-AAPV-OH) |  |  |  |  |  | 0%
CCCCCCCC/C=C\CCCCCCCC(=O)N[C@@H](C)C(=O)N[C@@H](C)C(=O)N1CCC[C@H]1C(=O)N[C@H](C(=O)O)C(C)C [Ol(Ala)2 Pro Valine, Oleoyl-L-Alanyl-L-Alanyl-L-Prolyl-L-Valine] (Oleoyl-AAPV-OH) |  |  |  | 51% | act as elastase inhibitors | 46%
